Structures are written as SMILES.

The first test deals with alanyl aminopeptidases (APN) (Homo sapiens, UniProt P15144). Kind of test: Inhibition of alanyl aminopeptidase enzymatic activity, fluorogenic substrate (Ala)2-rhodamine 110. The settings on record: Table 3, starred values = ID50; read-out: ID50 APN (values marked with *). It counts as biochemical. Here is the method: The inhibition characteristics measured are referred to as IC-50 values or ID50 values (the latter marked with “*”) for said enzyme. The enzymatic activity was determined by means of the fluorogenic substrate/product (Ala)2-rhodamine 110.
Chain of alanyl aminopeptidases (APN) (P15144 whole entry, species assumed): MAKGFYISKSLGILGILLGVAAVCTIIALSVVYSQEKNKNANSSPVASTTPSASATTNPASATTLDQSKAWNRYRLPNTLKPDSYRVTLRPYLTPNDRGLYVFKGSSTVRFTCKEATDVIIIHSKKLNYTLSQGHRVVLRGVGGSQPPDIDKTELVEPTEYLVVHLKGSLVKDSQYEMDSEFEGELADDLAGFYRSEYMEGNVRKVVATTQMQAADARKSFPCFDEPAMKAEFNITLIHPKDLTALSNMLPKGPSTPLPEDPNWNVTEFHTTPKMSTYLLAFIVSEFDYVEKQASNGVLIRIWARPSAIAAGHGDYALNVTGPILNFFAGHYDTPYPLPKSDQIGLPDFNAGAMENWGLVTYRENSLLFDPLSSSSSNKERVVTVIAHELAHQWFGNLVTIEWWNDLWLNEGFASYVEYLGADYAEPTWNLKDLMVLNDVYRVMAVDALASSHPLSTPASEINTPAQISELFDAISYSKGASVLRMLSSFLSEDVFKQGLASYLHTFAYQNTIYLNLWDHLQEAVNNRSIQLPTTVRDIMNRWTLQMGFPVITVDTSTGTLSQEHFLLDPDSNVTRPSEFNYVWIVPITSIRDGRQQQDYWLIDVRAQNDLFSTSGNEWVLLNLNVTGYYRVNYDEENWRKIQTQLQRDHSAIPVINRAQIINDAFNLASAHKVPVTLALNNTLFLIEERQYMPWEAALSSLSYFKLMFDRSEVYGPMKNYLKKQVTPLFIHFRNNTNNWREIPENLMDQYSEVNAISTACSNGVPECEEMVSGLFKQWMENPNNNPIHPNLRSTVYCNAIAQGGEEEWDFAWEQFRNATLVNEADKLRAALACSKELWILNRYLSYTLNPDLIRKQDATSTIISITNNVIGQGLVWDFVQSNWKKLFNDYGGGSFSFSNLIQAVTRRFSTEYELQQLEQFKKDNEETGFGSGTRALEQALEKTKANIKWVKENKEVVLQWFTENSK
Turning to `O=C1C(Cc2ccc(O)cc2)NC(=S)N1Cc1ccccc1` (centres unmarked) [A3.145], the IC50 was 23.7 µM. On to `O=C(N/N=C/c1ccco1)c1ccc(NCc2ccccc2)cc1` [A3.346], for which the IC50 stood at 294 µM. On to `CC(C)(C)c1ccc2c(c1)C1c3ccc(C(C)(C)C)cc3C2C2C(=O)N(c3cccc(Cl)c3)C(=O)C12` (centres unmarked) [A3.348], for which the IC50 turned out to be 321 µM. Still for that read-out and setting: next, `CC(=O)Oc1ccc2c(=O)c(-c3cnn(-c4ccccc4)c3)c(C(F)(F)F)oc2c1OC(C)=O` [A3.325]: 134 µM.

Still in this test, the particulars now being: Table 3, unstarred values; read-out: IC50APN.
For the compound `O=C(COc1ccc(F)cc1)N/N=C/c1ccco1` [A3.060], the IC50 came out at 13.6 µM. Regarding `Cc1ccc(/C=N/NC(=O)c2cc(O)cc(O)c2)o1` [A3.160], the IC50 amounted to 26.4 µM. Take `O=C(N/N=C/c1ccco1)c1cc(C2CC2)n[nH]1` [A3.064]: the IC50 came to 14.3 µM. In the case of `O=C1C(Cc2ccc3[nH]ccc3c2)NC(=S)N1c1ccccc1` (centres unmarked) [A3.223], the IC50 turned out to be 36.9 µM. Regarding `CCOC(=O)c1nc(C)[nH]c1N` [A3.012], the IC50 worked out at 4.3 µM. For the compound `Cc1ccc(/C=C/C(=O)Nc2ccc(S(=O)(=O)N3CCCC3)cc2)o1` [A3.149], the IC50 turned out to be 24.8 µM.

Regarding `O=C(N/C(=C\c1ccco1)C(=O)N1CCCC(CO)C1)c1ccccc1` (centres unmarked) [A3.094], the IC50 was determined as 19 µM. Take `CN(C)CCCN1CCN(c2nc(N(C)CC(=O)O)c3ncn(Cc4ccc(C(F)(F)F)cc4)c3n2)CC1` [A3.137]: the IC50 came out at 23 µM. Consider `COc1ccc(Cl)cc1C(=O)N/C(=C/c1ccco1)C(=O)N1CC2CC(C1)c1cccc(=O)n1C2` (centres unmarked) [A3.030], for which the IC50 was determined as 8.1 µM. In the case of `N/C(=N\N=C\c1ccco1)c1nonc1N` [A3.068], the IC50 was determined as 14.6 µM. Take `CC1=C(C#N)C(=O)N(CCCO)C(=O)/C1=C\c1ccc(-c2cc(C)c(C)cc2[N+](=O)[O-])o1` [A3.037]: the IC50 was determined as 9.7 µM. Take `O=C(CNS(=O)(=O)c1ccc2c(c1)OCCO2)N/N=C/c1ccco1` [A3.274]: the IC50 amounted to 55.6 µM. On to `O=C(N/N=C/c1ccco1)c1ccn[nH]1` [A3.232], for which the IC50 is 40.3 µM. As for `CC1=NNC(=O)C1CCC(=O)N/N=C\C=C\c1ccco1` (centres unmarked) [A3.138], the IC50 amounted to 23 µM. On to `COC(=O)c1cc(NC(=O)Cc2cccs2)cc(C(=O)OC)c1` [A3.117], for which the IC50 is 21.2 µM. Consider `COc1ccc(-c2nc(C)sc2CC(=O)O)cc1` [A3.111], for which the IC50 was determined as 20.8 µM. On to `CCCOC(=O)c1cc(-c2ccc(/C=C3\C(=O)NC(=O)C(C#N)=C3C)o2)ccc1Cl` [A3.221], for which the IC50 is 36.8 µM. Take `Cc1cccc(C(=O)Nc2cccc(C(=O)N/N=C/c3ccc(C)o3)c2)c1` [A3.216b]: the IC50 was 36.2 µM.

For `O=C(/C=C/c1ccco1)Nc1ccc(C(=O)O)cc1` [A3.033], the IC50 was found to be 8.4 µM.

As for `CCc1ccc(OCC(=O)N/N=C\c2ccco2)c([N+](=O)[O-])c1` [A3.153], the IC50 is 25.1 µM. For the compound `O=C(C[N+](=O)[O-])C1=CC2OC=CC2N1` (centres unmarked) [A3.258], the IC50 is 49.5 µM. Consider `CCOC(=O)C1C(C)C2C3C(=O)N(c4cccc5ccccc45)C(=O)C3C1(C)C1C(=O)N(c3cccc4ccccc34)C(=O)C21` (centres unmarked) [A3.027], for which the IC50 was 7.4 µM. On the same count and under the same terms, next, `COc1ccccc1C(=O)N/N=C/c1ccc(C)o1` [A3.211]: 34.7 µM; `O=C(COc1ccc2ccccc2c1Br)N/N=C/c1ccco1` [A3.253]: 47.3 µM; `C/C(=N\NC(=O)CNC(=O)/C=C/c1ccco1)c1ccc2ccccc2c1` [A3.050]: 12 µM.

Staying with this test, now noted: Table 4, starred values = ID50; read-out: ID50 APN (values marked with *).
For the compound `O=C(N/N=C/c1ccco1)c1ccc(NCc2ccccc2)cc1` [A4.184], the IC50 amounted to 294 µM.

For `O=C(Cc1ccccc1)NCC(=O)N/N=C/c1ccco1` [A4.161], the IC50 was 73.1 µM.

Regarding `O=C(N/N=C/c1ccco1)c1ccc([N+](=O)[O-])cc1` [A4.185], the IC50 amounted to 305 µM.

The test is the same for the next values; noted with them: Table 4, unstarred values; read-out: IC50APN.
Regarding `Cc1ccc(/C=N/NC(=O)c2cn(-c3nonc3N)nn2)o1` [A4.016], the IC50 worked out at 10.9 µM.

Consider `O=C(Nc1ccccc1C(=O)N/N=C/c1ccco1)c1ccccc1Cl` [A4.109], for which the IC50 is 34.7 µM. For `O=C(N/N=C/c1cc(Br)c(O)c(Br)c1O)/C(=C\c1ccc2c(c1)OCO2)NC(=O)c1ccccc1` [A4.073], the IC50 was 23.6 µM. For `COc1cc(Br)cc(Br)c1OCC(=O)N/N=C/c1cc(Br)c(O)c(O)c1Br` [A4.024], the IC50 amounted to 13.2 µM. Consider `O=C(COc1ccccc1)N/N=C/c1ccco1` [A4.170], for which the IC50 turned out to be 87.5 µM. For the compound `COc1ccc(/C=C(/NC(=O)c2ccccc2)C(=O)N/N=C\C=C\c2ccc(C)o2)cc1OC` [A4.041], the IC50 amounted to 16.7 µM.

Consider `Cc1cc(C(=O)N/N=C/c2ccc(C)o2)[nH]n1` [A4.100], for which the IC50 amounted to 31.8 µM. Take `Cc1ccccc1S(=O)(=O)Nc1cccc(C(=O)N/N=C/c2ccco2)c1` [A4.049]: the IC50 worked out at 19.2 µM. On to `C/C(=N\NC(=O)c1ccco1)c1ccc(C)o1` [A4.179], for which the IC50 amounted to 152 µM. As to `C/C(=N\NC(=O)c1cc(-c2ccccc2)n[nH]1)c1ccco1` [A4.149], the IC50 came to 58.3 µM. For the compound `COc1ccc(C(=O)N/N=C/c2cc(Br)c(C)o2)cc1` [A4.060], the IC50 worked out at 21.8 µM. `Cc1ccc(/C=N/NC(=O)c2cccc(CC(=O)c3ccccc3C)c2)o1` [A4.047]: the IC50 was 18.9 µM. Consider `O=C(N/N=C/c1cc([N+](=O)[O-])ccc1O)c1ccc(Cl)cc1` [A4.078], for which the IC50 is 25.7 µM. For `O=C(CCc1ccccc1)N/N=C/c1ccco1` [A4.162], the IC50 stood at 74.7 µM.

Still in this test, the particulars now being: Table 6; read-out: IC50APN.
As for `N/C(=N/OS(=O)(=O)c1ccc(C(F)(F)F)cc1)C1CSCCS1` (centres unmarked) [A6.006], the IC50 came to 13.4 µM. Take `O=C(CNS(=O)(=O)c1ccc2c(c1)OCCO2)N/N=C/c1ccco1` [A6.016]: the IC50 is 55.6 µM.

Staying with this test, now noted: Table 7; read-out: IC50APN.
On to `CSCCC1NC(=S)N(Cc2ccccc2)C1=O` (centres unmarked) [A7.008], for which the IC50 was determined as 14.1 µM.

Still in this test, the particulars now being: Table 8, starred values = ID50; read-out: ID50 APN (values marked with *).
With `COc1ccc(C2C(C(=O)c3ccccc3)C(c3ccccc3)C(C(=O)NCc3ccc(F)cc3)N2C(=O)NC2CCCCC2)cc1` (centres unmarked) [A8.041], the IC50 worked out at 231 µM.

The same test, now with this note: Table 8, unstarred values; read-out: IC50APN.
With `Cn1c(=O)c2c(nc3sccn32)n(C)c1=O` [A8.013], the IC50 is 14.3 µM.

For the compound `Cn1nc(-c2cccs2)nc2c(=O)n(C)c(=O)nc1-2` [A8.021], the IC50 amounted to 25 µM. In the case of `O=C1C(Cc2ccccc2)NC(=S)N1c1ccccc1` (centres unmarked) [A8.020], the IC50 came to 26.1 µM.

Still in this test, the particulars now being: Table 9, starred values = ID50; read-out: ID50 APN (values marked with *).
For the compound `C#CCN1C(c2cnccn2)=NC(CC(C)C)C1C(=O)Nc1c(C)cccc1C` (centres unmarked) [A9.119], the IC50 was found to be 103 µM.

Staying with this test, now noted: Table 9, unstarred values; read-out: IC50APN.
Take `COc1cc(C)[n+](OC(=O)N(C)C)c(C)c1` [A9.095]: the IC50 was found to be 42.4 µM.

For `Clc1ccc(-n2cc3c(-c4ccco4)nnc(-c4nc5ccccc5s4)c3n2)cc1` [A9.034], the IC50 came to 14.3 µM. As to `Nc1nc2nc(-c3ccco3)cc(C(F)(F)F)n2n1` [A9.084], the IC50 came to 32.1 µM. On the same count and under the same terms, next, `O=C(Nc1ccc(O)cc1C(=O)O)c1cccc(N2C(=O)c3cccc4c([N+](=O)[O-])ccc(c34)C2=O)c1` [A9.063]: 23.6 µM; `CN1C/C(=C/c2ccco2)C(=O)/C(=C/c2ccco2)C1` [A9.046]: 19.2 µM; `CCCCCCCSc1nnc2c(n1)OC(C(=O)c1ccccc1)=Nc1ccccc1-2` [A9.074]: 28.9 µM. Consider `CC1(C)N=C(N)N=C(N)N1c1c(Cl)cccc1Cl` [A9.105], for which the IC50 amounted to 59.8 µM. Regarding `O=C(N/C(=C\c1ccco1)C(=O)N1CCCC(CO)C1)c1ccccc1` (centres unmarked) [A9.043], the IC50 is 19 µM. For the compound `Cc1cc(=O)[nH]c(N/N=C/c2ccco2)n1` [A9.041], the IC50 was found to be 18.2 µM. With `COc1ccc(/C=C2\c3ccccc3-c3ccc(C(=O)CCCCN4CCCCC4)cc32)cc1OC` [A9.111], the IC50 came out at 74.6 µM. Consider `CCCOC(=O)c1cc(-c2ccc(/C=C3\C(=O)N(CCCO)C(=O)C(C#N)=C3C)o2)ccc1Cl` [A9.064], for which the IC50 was 23.8 µM. Regarding `CC1CCN(S(=O)(=O)c2ccc3c(c2)C(Cl)(Cl)C(=O)N3)CC1` [A9.092], the IC50 stood at 37.2 µM.

Take `CC1CCN(C(=O)/C(=C\c2ccco2)NC(=O)c2ccccc2)CC1` [A9.096]: the IC50 worked out at 45 µM.

Turning to `O=C(NC(Sc1ccncn1)C(=O)c1ccccc1)c1ccccc1` (centres unmarked) [A9.068], the IC50 was determined as 26.9 µM.

As to `O=C(CNS(=O)(=O)c1ccc2c(c1)OCCO2)N/N=C/c1ccco1` [A9.104], the IC50 was found to be 55.6 µM.

Consider `CCOC(=O)C(C#N)c1c([N+](=O)[O-])c(=O)n(-c2ccccc2)c2ccccc12` (centres unmarked) [A9.078], for which the IC50 was 30 µM.

The same test, now with this note: Table 10; read-out: IC50APN.
On to `CC1CC(=O)N(C(=O)CCBr)c2ccc([N+](=O)[O-])cc2N1C(=O)CCBr` (centres unmarked) [A10.008], for which the IC50 was 99.8 µM.

Staying with this test, now noted: Table 11; read-out: IC50APN.
In the case of `COc1cccc(C(=O)NCC(=O)N/N=C/c2ccc([N+](=O)[O-])o2)c1` [A11.035], the IC50 was found to be 222 µM. On to `C=CCN1C(=O)C(C#N)=C(C)/C(=C\c2ccc(-c3cc(C)c(C)cc3[N+](=O)[O-])o2)C1=O` [A11.020], for which the IC50 worked out at 29.3 µM. Consider `O=C(Nc1ccc(F)cc1)c1ccc([NH+]([O-])O)o1` (centres unmarked) [A11.027], for which the IC50 came to 37.4 µM. Consider `Cc1ccc(C)c(NC(=O)C(=O)N/N=C/c2cc([N+](=O)[O-])ccc2O)c1` [A11.006], for which the IC50 came to 10.8 µM.

`CC(NC(=O)C(=O)N/N=C\c1cc([N+](=O)[O-])ccc1O)c1ccccc1` (centres unmarked) [A11.007]: the IC50 turned out to be 11.4 µM. Consider `O=C(N/N=C/c1cc([N+](=O)[O-])ccc1O)c1ccc(O)cc1O` [A11.013], for which the IC50 is 20.2 µM.

Still in this test, the particulars now being: Table 12; read-out: IC50APN.
For the compound `CC(C)C1N=C(Cc2cccnc2)N(CCCN2CCCC2=O)C1C(=O)NCc1ccccc1` (centres unmarked) [A12.055], the IC50 came out at 34 µM.

The test is the same for the next values; noted with them: Table 13; read-out: IC50APN.
On to `Cc1ccc(/C=N/NC(=O)c2cccc(Cl)c2)o1` [A13.005], for which the IC50 worked out at 10.5 µM. On the same count and under the same terms, then `CC1=C(C#N)C(=O)N(CCO)C(=O)/C1=C\c1ccc(-c2ccc(C)c(Cl)c2)o1` [A13.024], with 125 µM.

The record behind these values is patent US20070037752A1, “Novel alanyl-amino peptidase inhibitors for functionally influencing different cells and treating immunological, inflammatory, neuronal, and other diseases” (priority 2003, published 2007).
